From doi:10.1101/2024.08.19.608619, “Discovery of potent SARS-CoV-2 nsp3 macrodomain inhibitors uncovers lack of translation to cellular antiviral response” (bioRxiv, 2024)
Several values for one entry are separate records, joined by “and”; a condition that tells them apart may be missing. Identical values can stand only once. Like-named read-outs stand apart in the source and are kept apart here.

Columns and labels:
[1] = biological target: T1, KOR receptor (Homo sapiens, UniProt P41145); assay: Eurofins CEREP panel, KOR; format: binding
T1 construct: purchased Eurofins Cerep (SafetyScreen44), recognised from the panel format

[2] = In vitro rat hepatocyte stability; format: in vitro ADME
Excerpt: (§1) Supplement media-1.zip/Hepatocyte_Stability.csv, table | column: clint; t_half

[3] = In vitro dog hepatocyte stability; format: in vitro ADME
Excerpt: as §1

[4] = test system: CYP; assay: CYP inhibition; format: in vitro ADME; details: In vitro CYP inhibition pooled; for potency: potency class in words
Excerpt: Supplement media-1.zip/CYP_Inhibition.csv, table | column: ic50; potency

[5] = biological target: T2, 5-HT3 (h) (Homo sapiens, UniProt P46098); assay: In vitro CEREP profiling, 5-HT3 (h) (antagonist radioligand); format: binding; details: test compound concentration 10 uM
T2 construct: purchased Eurofins Cerep (SafetyScreen44), recognised from the panel format
T2 sequence (P46098 24-478): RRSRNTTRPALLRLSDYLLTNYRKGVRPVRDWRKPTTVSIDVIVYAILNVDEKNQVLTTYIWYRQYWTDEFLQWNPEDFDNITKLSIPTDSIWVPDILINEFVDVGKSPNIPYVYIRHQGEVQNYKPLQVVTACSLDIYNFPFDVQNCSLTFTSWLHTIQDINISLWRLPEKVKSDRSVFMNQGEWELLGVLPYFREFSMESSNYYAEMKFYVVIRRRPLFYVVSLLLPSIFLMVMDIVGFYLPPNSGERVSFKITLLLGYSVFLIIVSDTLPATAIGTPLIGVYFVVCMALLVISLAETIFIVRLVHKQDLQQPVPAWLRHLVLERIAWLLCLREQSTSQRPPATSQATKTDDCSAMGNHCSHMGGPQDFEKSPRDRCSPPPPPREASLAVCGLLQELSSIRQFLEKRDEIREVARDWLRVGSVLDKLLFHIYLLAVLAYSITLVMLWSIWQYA
Excerpt: (§2) Supplement media-1.zip/Safety_Panel_Profile.csv, table | column: perc_inhibition

[6] = biological target: T3, M1 (h) (Homo sapiens, UniProt P11229); assay: In vitro CEREP profiling, M1 (h) (antagonist radioligand); format: binding; details: test compound concentration 10 uM
T3 construct: purchased Eurofins Cerep (SafetyScreen44), recognised from the panel format
T3 sequence (P11229 1-460): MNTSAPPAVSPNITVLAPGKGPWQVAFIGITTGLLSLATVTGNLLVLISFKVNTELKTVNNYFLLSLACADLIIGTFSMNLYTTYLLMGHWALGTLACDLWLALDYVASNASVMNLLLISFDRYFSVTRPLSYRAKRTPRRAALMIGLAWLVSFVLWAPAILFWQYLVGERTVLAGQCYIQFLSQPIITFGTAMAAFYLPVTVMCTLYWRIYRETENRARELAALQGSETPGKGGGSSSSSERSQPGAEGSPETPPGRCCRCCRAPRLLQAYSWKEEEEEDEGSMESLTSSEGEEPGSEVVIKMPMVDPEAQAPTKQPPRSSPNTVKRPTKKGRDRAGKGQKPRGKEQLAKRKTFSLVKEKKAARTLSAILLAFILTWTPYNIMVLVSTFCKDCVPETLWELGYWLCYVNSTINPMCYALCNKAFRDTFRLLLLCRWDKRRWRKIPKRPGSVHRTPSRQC
Excerpt: as §2

[7] = biological target: T4, Lck kinase (h) (Homo sapiens, UniProt P06239); assay: In vitro CEREP profiling, Lck kinase (h); format: biochemical; details: test compound concentration 10 uM, Enzyme and Cell-based assays
T4 construct: purchased Eurofins Cerep (SafetyScreen44), recognised from the panel format
Excerpt: as §2

[8] = biological target: T5, CB2 (h) (Homo sapiens, UniProt P34972); assay: In vitro CEREP profiling, CB2 (h) (agonist radioligand); format: binding; details: test compound 10 uM
T5 construct: purchased Eurofins Cerep (SafetyScreen44), recognised from the panel format
Excerpt: as §2

[9] = biological target: T6, V1a (h) (Homo sapiens, UniProt P37288); assay: In vitro CEREP profiling, V1a (h) (agonist radioligand); format: binding; details: test compound concentration 10 uM
T6 construct: purchased Eurofins Cerep (SafetyScreen44), recognised from the panel format
Excerpt: as §2

[10] = biological target: T7, delta (DOP) (h) (Homo sapiens, UniProt P41143); assay: In vitro CEREP profiling, delta (DOP) (h) (agonist radioligand); format: binding; details: test compound concentration 10 uM
T7 construct: purchased Eurofins Cerep (SafetyScreen44), recognised from the panel format
Excerpt: as §2

[11] = biological target: T8, CCK1 (CCKA) (h) (Homo sapiens, UniProt P32238); assay: In vitro CEREP profiling, CCK1 (CCKA) (h) (agonist radioligand); format: binding; details: test compound 10 uM
T8 construct: purchased Eurofins Cerep (SafetyScreen44), recognised from the panel format
T8 sequence (P32238 1-428): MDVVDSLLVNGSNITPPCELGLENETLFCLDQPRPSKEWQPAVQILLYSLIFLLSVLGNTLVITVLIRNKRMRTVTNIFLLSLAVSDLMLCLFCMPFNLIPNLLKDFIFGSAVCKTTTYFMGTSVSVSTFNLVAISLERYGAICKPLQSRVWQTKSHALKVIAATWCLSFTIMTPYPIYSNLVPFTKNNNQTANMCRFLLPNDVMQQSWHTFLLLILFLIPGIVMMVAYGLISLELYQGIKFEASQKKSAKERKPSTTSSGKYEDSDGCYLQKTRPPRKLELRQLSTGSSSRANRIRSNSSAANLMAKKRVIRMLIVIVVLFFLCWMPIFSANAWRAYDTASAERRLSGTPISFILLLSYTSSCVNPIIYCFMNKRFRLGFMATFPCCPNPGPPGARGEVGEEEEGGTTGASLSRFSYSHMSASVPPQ
Excerpt: as §2

[12] = biological target: T9, mu (MOP) (h) (Homo sapiens, UniProt P35372); assay: In vitro CEREP profiling, mu (MOP) (h) (agonist radioligand); format: binding; details: test compound concentration 10 uM
T9 construct: purchased Eurofins Cerep (SafetyScreen44), recognised from the panel format
Excerpt: as §2

[13] = test system: HeLa-ACE2 cells; details: for perc_max_measured: highest measured response of the dose series; for perc_min_measured: lowest measured response of the dose series
[14] = biological target: hERG (Homo sapiens, UniProt Q12809); assay: In vitro hERG cardiotoxocity; details: for IC50: top test concentration 30 uM
Excerpt: Supplement media-1.zip/Cardiotoxicity.csv, table | column: ic50; perc_inhibition_top_conc

[15] = biological target: T10, 5-HT1B (h) (Homo sapiens, UniProt P28222); assay: In vitro CEREP profiling, 5-HT1B (h) (antagonist radioligand); format: binding; details: test compound concentration 10 uM
T10 construct: purchased Eurofins Cerep (SafetyScreen44), recognised from the panel format
Excerpt: as §2

[16] = test system: NMDA; assay: In vitro CEREP profiling, NMDA (antagonist radioligand); format: binding; details: test compound concentration 10 uM
Excerpt: as §2

[17] = protocol HeLa-ACE2 cytotoxicity
[18] = read-out: perc_inhibition, % inhibition of the binding of a ligand specific for each target
[19] = read-out: perc_inhibition (% inhibition of the binding of a ligand specific for each target)

T1 sequence (P41145 whole entry): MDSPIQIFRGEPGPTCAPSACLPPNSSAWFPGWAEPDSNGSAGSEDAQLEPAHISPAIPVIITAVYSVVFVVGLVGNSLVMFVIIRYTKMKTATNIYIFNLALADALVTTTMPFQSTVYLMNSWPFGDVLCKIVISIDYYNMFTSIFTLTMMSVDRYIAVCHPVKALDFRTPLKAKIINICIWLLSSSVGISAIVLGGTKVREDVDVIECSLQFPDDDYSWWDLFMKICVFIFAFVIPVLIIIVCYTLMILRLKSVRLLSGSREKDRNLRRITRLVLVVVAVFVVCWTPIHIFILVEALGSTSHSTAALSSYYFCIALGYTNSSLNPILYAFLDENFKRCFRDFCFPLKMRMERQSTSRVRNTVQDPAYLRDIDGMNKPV
Chain of hERG (Q12809 whole entry): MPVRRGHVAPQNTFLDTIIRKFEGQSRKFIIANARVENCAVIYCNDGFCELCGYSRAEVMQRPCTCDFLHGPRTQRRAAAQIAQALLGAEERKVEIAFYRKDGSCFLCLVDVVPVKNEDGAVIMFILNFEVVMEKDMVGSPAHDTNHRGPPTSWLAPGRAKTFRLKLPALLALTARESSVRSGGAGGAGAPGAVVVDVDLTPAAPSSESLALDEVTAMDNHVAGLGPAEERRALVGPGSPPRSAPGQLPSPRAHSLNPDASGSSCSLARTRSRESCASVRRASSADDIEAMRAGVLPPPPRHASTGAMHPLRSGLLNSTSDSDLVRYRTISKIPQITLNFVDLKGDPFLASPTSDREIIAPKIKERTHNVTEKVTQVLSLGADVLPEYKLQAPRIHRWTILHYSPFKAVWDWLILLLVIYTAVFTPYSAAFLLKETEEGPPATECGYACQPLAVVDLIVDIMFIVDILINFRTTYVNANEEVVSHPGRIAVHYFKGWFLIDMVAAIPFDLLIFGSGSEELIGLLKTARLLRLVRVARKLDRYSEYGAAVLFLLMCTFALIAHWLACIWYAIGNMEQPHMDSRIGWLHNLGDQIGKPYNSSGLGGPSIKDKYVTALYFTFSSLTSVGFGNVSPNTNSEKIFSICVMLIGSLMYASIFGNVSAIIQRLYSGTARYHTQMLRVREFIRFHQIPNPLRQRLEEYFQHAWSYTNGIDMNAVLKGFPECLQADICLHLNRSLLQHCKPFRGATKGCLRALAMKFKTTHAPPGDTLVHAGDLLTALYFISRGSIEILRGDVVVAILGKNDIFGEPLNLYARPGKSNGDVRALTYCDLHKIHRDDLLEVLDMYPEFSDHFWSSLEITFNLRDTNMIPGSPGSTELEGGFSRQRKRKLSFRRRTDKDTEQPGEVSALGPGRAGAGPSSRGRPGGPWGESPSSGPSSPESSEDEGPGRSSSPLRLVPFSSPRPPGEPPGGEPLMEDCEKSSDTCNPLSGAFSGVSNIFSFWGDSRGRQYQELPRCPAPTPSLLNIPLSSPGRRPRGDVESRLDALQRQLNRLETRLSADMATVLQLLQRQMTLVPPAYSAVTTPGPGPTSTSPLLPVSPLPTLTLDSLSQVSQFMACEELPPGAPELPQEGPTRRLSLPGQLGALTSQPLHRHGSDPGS
T6 sequence (P37288 whole entry): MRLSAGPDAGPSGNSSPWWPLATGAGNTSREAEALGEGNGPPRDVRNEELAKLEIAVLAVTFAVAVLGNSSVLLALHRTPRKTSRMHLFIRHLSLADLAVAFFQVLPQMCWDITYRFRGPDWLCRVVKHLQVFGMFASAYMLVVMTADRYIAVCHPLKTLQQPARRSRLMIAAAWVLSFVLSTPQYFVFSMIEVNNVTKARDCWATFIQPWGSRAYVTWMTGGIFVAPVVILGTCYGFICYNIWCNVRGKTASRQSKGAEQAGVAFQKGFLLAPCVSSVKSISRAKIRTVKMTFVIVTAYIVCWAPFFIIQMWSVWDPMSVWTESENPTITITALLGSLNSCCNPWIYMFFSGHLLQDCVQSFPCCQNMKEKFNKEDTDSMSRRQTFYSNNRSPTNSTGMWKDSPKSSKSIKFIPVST
T10 sequence (P28222 whole entry): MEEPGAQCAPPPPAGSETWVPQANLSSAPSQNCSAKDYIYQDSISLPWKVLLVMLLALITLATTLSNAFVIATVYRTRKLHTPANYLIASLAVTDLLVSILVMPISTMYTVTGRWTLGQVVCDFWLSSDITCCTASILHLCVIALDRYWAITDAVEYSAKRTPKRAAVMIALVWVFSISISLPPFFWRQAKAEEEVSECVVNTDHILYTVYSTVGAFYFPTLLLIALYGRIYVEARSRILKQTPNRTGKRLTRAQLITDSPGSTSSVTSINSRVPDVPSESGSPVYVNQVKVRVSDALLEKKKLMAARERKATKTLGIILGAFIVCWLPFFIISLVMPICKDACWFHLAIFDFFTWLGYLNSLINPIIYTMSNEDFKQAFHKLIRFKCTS
T7 sequence (P41143 whole entry): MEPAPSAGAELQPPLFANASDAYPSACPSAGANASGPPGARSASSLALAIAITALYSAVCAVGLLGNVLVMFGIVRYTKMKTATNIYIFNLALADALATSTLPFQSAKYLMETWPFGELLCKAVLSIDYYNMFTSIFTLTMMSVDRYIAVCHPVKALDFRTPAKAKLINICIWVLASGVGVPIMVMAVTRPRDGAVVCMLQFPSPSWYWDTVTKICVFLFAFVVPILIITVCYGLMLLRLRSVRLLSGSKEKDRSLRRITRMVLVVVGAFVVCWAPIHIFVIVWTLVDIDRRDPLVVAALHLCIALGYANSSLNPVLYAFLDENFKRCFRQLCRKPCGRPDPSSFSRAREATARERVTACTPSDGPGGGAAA
T5 sequence (P34972 whole entry): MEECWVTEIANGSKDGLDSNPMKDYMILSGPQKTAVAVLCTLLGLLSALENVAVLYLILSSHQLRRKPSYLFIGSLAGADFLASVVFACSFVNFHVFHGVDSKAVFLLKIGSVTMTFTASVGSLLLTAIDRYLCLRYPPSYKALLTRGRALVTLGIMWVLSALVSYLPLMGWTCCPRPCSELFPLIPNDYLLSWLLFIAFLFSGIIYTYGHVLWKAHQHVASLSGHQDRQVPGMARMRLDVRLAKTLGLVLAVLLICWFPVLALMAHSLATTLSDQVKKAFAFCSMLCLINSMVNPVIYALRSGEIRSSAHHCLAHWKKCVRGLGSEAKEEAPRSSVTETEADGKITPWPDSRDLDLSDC
T9 sequence (P35372 whole entry): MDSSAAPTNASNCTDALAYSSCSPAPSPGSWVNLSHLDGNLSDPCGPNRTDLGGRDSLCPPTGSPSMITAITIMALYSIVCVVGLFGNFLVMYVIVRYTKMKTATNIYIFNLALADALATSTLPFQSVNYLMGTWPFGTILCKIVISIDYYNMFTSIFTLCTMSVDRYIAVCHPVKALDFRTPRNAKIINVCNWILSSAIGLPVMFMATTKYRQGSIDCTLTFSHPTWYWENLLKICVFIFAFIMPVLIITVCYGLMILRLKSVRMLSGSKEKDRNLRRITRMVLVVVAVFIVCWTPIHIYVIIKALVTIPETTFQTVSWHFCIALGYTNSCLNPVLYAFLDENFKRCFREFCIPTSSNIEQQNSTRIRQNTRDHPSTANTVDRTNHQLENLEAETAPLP
T4 sequence (P06239 whole entry): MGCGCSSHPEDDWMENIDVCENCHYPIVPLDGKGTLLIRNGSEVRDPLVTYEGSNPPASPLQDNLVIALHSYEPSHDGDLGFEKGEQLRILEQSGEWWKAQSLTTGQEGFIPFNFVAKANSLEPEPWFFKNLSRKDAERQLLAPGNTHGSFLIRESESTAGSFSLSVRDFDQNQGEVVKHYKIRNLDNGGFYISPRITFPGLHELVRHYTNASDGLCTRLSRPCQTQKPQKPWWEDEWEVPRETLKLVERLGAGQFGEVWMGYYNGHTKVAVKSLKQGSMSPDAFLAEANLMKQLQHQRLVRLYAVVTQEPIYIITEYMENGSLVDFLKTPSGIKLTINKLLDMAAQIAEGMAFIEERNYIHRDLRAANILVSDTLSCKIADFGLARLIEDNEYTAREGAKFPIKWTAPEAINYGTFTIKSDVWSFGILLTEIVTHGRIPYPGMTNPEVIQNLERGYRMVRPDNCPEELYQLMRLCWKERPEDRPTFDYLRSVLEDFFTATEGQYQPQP

Structure (SMILES) | clint [2] [uL/min/1E6 cells] | t_half [2] | t_half [3] [min] | potency ([4]; isoform 1A2) | potency ([4]; isoform 2C9) | potency ([4]; isoform 2C19) | potency ([4]; isoform 2D6) | potency ([4]; isoform 3A4) | cc10 ([13]; HeLa-ACE2 cytotoxicity) [µM] | perc_max_measured ([13]; HeLa-ACE2 cytotoxicity) [%] | perc_min_measured ([13]; HeLa-ACE2 cytotoxicity) [%] | CC50 [13, 17] [µM] | cc10 [13, 17] [µM] | perc_max_measured [13, 17] [%] | perc_min_measured [13, 17] [%] | IC50 [14] [µM] | perc_inhibition (% inhibition of the binding of a ligand specific for each target) [16] [%] | other results
CNCc1cc(-c2cc3c(N[C@@H](c4ccc5c(c4)S(=O)(=O)CCC5)C(C)C)ncnc3[nH]2)co1 [ASAP-0011176] | 15.6 | 44.5 min | 94.9 | weak | moderate | weak | moderate | moderate-potent | > 20.0 | 120.991 | 77.721 | > 20 | > 20.0 | 106.042 | 91.552 | > 30 | -1 | perc_inhibition (% inhibition of the binding of a ligand specific for each target) ([1]; kappa (h) (KOP) (agonist radioligand), test compound concentration 10 uM): 57%; clint [3]: 7.3 uL/min/1E6 cells; IC50 ([4]; isoform 1A2): 49.3 µM; IC50 ([4]; isoform 2C9): 5.25 µM; IC50 ([4]; isoform 2C19): 22.6 µM; IC50 ([4]; isoform 2D6): 9.03 µM; IC50 ([4]; isoform 3A4): 1.81 µM; perc_inhibition (% inhibition of the binding of a ligand specific for each target) [5]: 0%; perc_inhibition (% inhibition of the binding of a ligand specific for each target) [6]: 47%; perc_inhibition: % inhibition of control enzyme activity, Lck kinase (h) [7]: 68%; perc_inhibition (% inhibition of the binding of a ligand specific for each target) [8]: -8%; perc_inhibition (% inhibition of the binding of a ligand specific for each target) [9]: 13%; perc_inhibition (% inhibition of the binding of a ligand specific for each target) [10]: 53%; perc_inhibition (% inhibition of the binding of a ligand specific for each target) [11]: -24%; perc_inhibition (% inhibition of the binding of a ligand specific for each target) [12]: -5%; CC50 ([13]; HeLa-ACE2 cytotoxicity): > 20 µM; perc_inhibition_top_conc ([14]; at top test concentration 30 uM): 26.0%; perc_inhibition (% inhibition of the binding of a ligand specific for each target) [15]: 45%
CC(C)C(Nc1ncnc2[nH]c(C(=O)NC3CCN(C)C3)cc12)c1ccc2c(c1)S(=O)(=O)CCC2 (stereo not shown) [ASAP-0011198] | 9.3 | 145.0 min and 74.8 min | > 231.0 | weak | weak | weak | weak | weak | > 20.0 | 148.177 | 90.706 | > 20 | > 20.0 | 87.174 | 78.327 | > 30 | 1 | off-target activity at KOR receptor, in words ([1]; CEREP panel): moderate; inhibition at 10 µM ([1]; kappa (h) (KOP) (agonist radioligand), test compound concentration 10 uM, read-out: perc_inhibition (% inhibition of the binding of a ligand specific for each target)): 78%; hepatocyte CLint ([2]; rat, hepatocytes): 4.78 µL/min/1e6 cells; hepatocyte CLint ([3]; hepatocytes): < 3 µL/min/1e6 cells; inhibition at 10 µM [5, 18]: 2%; inhibition at 10 µM [6, 19]: 17%; inhibition at 10 µM ([7]; read-out: perc_inhibition: % inhibition of control enzyme activity, Lck kinase (h)): 15%; inhibition at 10 µM [8, 19]: -8%; inhibition at 10 µM [9, 18]: 6%; inhibition at 10 µM [10, 19]: -16%; inhibition at 10 µM [11, 19]: 7%; inhibition at 10 µM [12, 19]: 7%; perc_inhibition_top_conc ([14]; at top test concentration 30 uM, 30 µM): 23.0%; inhibition at 30 µM ([14]; human, at top test concentration 30 uM, read-out: perc_inhibition_top_conc): 18%; inhibition at 10 µM [15, 19]: 17%
